According to ChEMBL document CHEMBL1131172 (J Med Chem, 1998):
pIC50: −log10 of the molar value.

Tests used:
SF-268 = experiment: inhibition of the growth of CNS cancer(SF-268) cell line; format: functional; conditions: Homo sapiens
SF-539 = experiment: inhibition of the growth of CNS cancer(SF-539) cell line. value in parentheses is percent inhibition at 0.01 uM; format: functional; conditions: Homo sapiens
NCI-H322M = experiment: Inhibition of the growth of non-small-cell lung cancer (NCI-H322M) cell line; conditions: Homo sapiens
SK-MEL-5 = experiment: Inhibition of the growth of melanoma cancer (SK-MEL-5) cell line at 0.01 uM; format: functional; conditions: Homo sapiens
NCI-H460 [1] = experiment: inhibition of the growth of non-small-cell lung cancer (NCI-H460) cell line at 0.01 uM; format: functional; conditions: Homo sapiens
HCT-116 = experiment: inhibition of the growth of colon cancer(HCT116) cell line; format: functional; conditions: Homo sapiens
KM12 = experiment: inhibition of the growth of colon cancer(KM-12) cell line at 0.01 uM; format: functional; conditions: Homo sapiens
786-0 = experiment: Inhibition of the growth of renal cancer(786-0) cell line. value in parentheses is percent inhibition at 0.01 uM; format: functional; conditions: Homo sapiens
NCI-H522 [2] = experiment: inhibition of the growth of non-small-cell lung cancer (NCI-H522) cell line; format: functional; conditions: Homo sapiens
NCI/ADR-RES = experiment: Inhibition of the growth of breast cancer (MCF7/ADR-RES) cell line at 0.01 uM; format: functional; conditions: Homo sapiens
A549 [3] = experiment: Inhibition of the growth of non-small-cell lung cancer (A549/ATCC) cell line; format: functional; conditions: Homo sapiens
A549 [4] = experiment: Inhibition of the growth of non-small-cell lung cancer (A549/ATCC) cell line at 0.01 uM; format: functional; conditions: Homo sapiens
RPMI-8226 = experiment: Inhibition of the growth of leukemia (RPMI-8226) cell line; format: functional; conditions: Homo sapiens
DU-145 = experiment: Inhibition of the growth of prostate cancer(DU-145) cell line at 0.01 uM; format: functional; conditions: Homo sapiens
M14 = experiment: Inhibition of the growth of melanoma cancer (M14) cell line; format: functional; conditions: Homo sapiens
OVCAR-8 = experiment: Inhibition of the growth of ovarian cancer(OVCAR-8) cell line at 0.01 uM; format: functional; conditions: Homo sapiens
CAKI-1 = experiment: Inhibition of the growth of renal cancer(CAKI-1) cell line; format: functional; conditions: Homo sapiens
Dihydrofolate reductase = target: T1, Dihydrofolate reductase (Rattus norvegicus, UniProt Q920D2)
T1 sequence (Q920D2 whole entry): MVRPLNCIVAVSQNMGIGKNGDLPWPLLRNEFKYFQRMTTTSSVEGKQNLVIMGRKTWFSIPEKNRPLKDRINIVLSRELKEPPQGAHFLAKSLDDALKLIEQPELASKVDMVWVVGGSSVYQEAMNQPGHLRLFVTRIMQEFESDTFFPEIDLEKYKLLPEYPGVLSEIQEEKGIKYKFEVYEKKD
Description: Inhibitory activity against dihydrofolate reductase (DHFR) from rat liver

MDA-N = experiment: Inhibition of the growth of breast cancer(MDA-N) cell line; format: functional; conditions: Homo sapiens
MDA-MB-435 = experiment: Inhibition of the growth of breast cancer (MDA-MB-435) cell line at 0.01 uM; format: functional; conditions: Homo sapiens
SR [5] = experiment: Inhibition of the growth of leukemia(SR) cell line. value in parentheses is percent inhibition at 0.01 uM; format: functional; conditions: Homo sapiens
IGROV-1 [6] = experiment: Inhibition of the growth of ovarian cancer(IGROVI) cell line; format: functional; conditions: Homo sapiens
NCI-H460 [7] = experiment: Inhibition of the growth of non-small-cell lung cancer (NCI-H460) cell line; format: functional; conditions: Homo sapiens
NCI-H522 [8] = experiment: Inhibition of the growth of non-small-cell lung cancer (NCI-H522) cell line at 0.01 uM; format: functional; conditions: Homo sapiens
SR [9] = experiment: Inhibition of the growth of leukemia(SR) cell line. value in parentheses is percent inhibition at 0.01 uM at 0.01 uM; format: functional; conditions: Homo sapiens
IGROV-1 [10] = experiment: Inhibition of the growth of ovarian cancer(IGROVI) cell line at 0.01 uM; format: functional; conditions: Homo sapiens

`COc1ccc(N(C)c2ccc3nc(N)nc(N)c3n2)cc1` gave a GI50 (SF-268) of under 10 nM, a GI50 (SF-539) of 30 nM and a GI50 (NCI-H322M) of 20 nM. It also gave an inhibition at 0.01 µM (SK-MEL-5) of 65%, an inhibition at 0.01 µM (NCI-H460 [1]) of 84% and a GI50 (HCT-116) of under 10 nM. It also gave a GI50 (KM12) of 20 nM, a GI50 (786-0) of 590 nM and a GI50 (NCI-H522 [2]) of under 10 nM. For the same compound, the inhibition at 0.01 µM (NCI/ADR-RES) was 100%, the GI50 (A549 [3]) was under 10 nM and the inhibition at 0.01 µM (A549 [4]) was 67%. It also gave a GI50 (RPMI-8226) of under 10 nM, an inhibition at 0.01 µM (DU-145) of 51% and a GI50 (M14) of under 10 nM. The inhibition at 0.01 µM (OVCAR-8) was 90%, the GI50 (CAKI-1) was under 10 nM and the pIC50 (Dihydrofolate reductase) was 8.17. The GI50 (MDA-N) was under 10 nM, the inhibition at 0.01 µM (MDA-MB-435) was 68% and the GI50 (SR [5]) was under 10 nM. It also gave a GI50 (IGROV-1 [6]) of under 10 nM, a GI50 (NCI-H460 [7]) of under 10 nM and an inhibition at 0.01 µM (NCI-H522 [8]) of 53%. It also gave an inhibition at 0.01 µM (SR [9]) of 53% and an inhibition at 0.01 µM (IGROV-1 [10]) of 62%.
